Legend:
Talinum fruticosum = test: Herbicidal activity against Talinum fruticosum in Abelmoschus esculentus plots assessed as weed cover at 0.99 kg a.i/ha after 7 weeks (reference value: 14.7 +/- 0.46 %); format: functional
Corchorus olitorius = test: Phytotoxicity in Corchorus olitorius assessed as root length at 1.32 kg a.i/ha applied as solution after 7 weeks (reference value: 14.3 +/- 1.06 mm); format: organism-based; settings: in vivo, other, 1176 h
Ageratum conyzoides [1] = test: Herbicidal activity against Ageratum conyzoides in Abelmoschus esculentus plots assessed as weed cover at 0.33 kg a.i/ha after 7 weeks (reference value: 14.7 +/- 0.46 %); format: functional
Commelina diffusa = test: Herbicidal activity against Commelina diffusa in Abelmoschus esculentus plots assessed as weed cover at 0.66 kg a.i/ha after 4 weeks (reference value: 22.6 +/- 0.49 %); format: functional
Abelmoschus esculentus [2] = test: Phytotoxicity in Abelmoschus esculentus assessed as root length at 0.66 kg a.i/ha applied as solution after 7 weeks (reference value: 23 +/- 0.34 mm); format: organism-based; settings: in vivo, other, 1176 h
Euphorbia heterophylla [3] = test: Herbicidal activity against Euphorbia heterophylla in Abelmoschus esculentus plots assessed as weed cover at 0.66 kg a.i/ha after 4 weeks (reference value: 22.6 +/- 0.49 %); format: functional
Euphorbia heterophylla [4] = test: Herbicidal activity against Euphorbia heterophylla in Corchorus olitorius plots assessed as weed cover at 0.99 kg a.i/ha after 4 weeks (reference value: 20.1+/- 0.57 %); format: functional
Calopogonium mucunoides [5] = test: Herbicidal activity against Calopogonium mucunoides in Corchorus olitorius plots assessed as weed cover at 0.66 kg a.i/ha after 4 weeks (reference value: 20.1+/- 0.57 %); format: functional
Abelmoschus esculentus [6] = test: Phytotoxicity in Abelmoschus esculentus assessed as seed germination at 0.66 kg a.i/ha applied as solution after 7 weeks (reference value: 85.7 +/- 0.36 %); format: organism-based; settings: in vivo, other, 1176 h
Synedrella nodiflora [7] = test: Herbicidal activity against Synedrella nodiflora in Corchorus olitorius plots assessed as weed cover at 0.33 kg a.i/ha after 2 weeks (reference value: 81.7 +/- 0.43 %); format: functional
Mimosa pudica = test: Herbicidal activity against Mimosa pudica in Abelmoschus esculentus plots assessed as weed cover at 0.33 kg a.i/ha after 2 weeks (reference value: 63.5 +/- 0.29 %); format: functional
Ageratum conyzoides [8] = test: Herbicidal activity against Ageratum conyzoides in Corchorus olitorius plots assessed as major weed growth at 0.33 kg a.i/ha after 2 weeks; format: functional
Abelmoschus esculentus [9] = test: Phytotoxicity in Abelmoschus esculentus assessed as shoot length at 0.33 kg a.i/ha treated to soil after 7 weeks (reference value: 8.5 +/- 0.34 mm); format: organism-based; settings: in vivo, other, 1176 h
Calopogonium mucunoides [10] = test: Herbicidal activity against Calopogonium mucunoides in Corchorus olitorius plots assessed as weed cover at 0.66 kg a.i/ha after 2 weeks (reference value: 81.7 +/- 0.43 %); format: functional
Cyperus rotundus [11] = test: Herbicidal activity against Cyperus rotundus in Corchorus olitorius plots assessed as weed cover at 0.66 kg a.i/ha after 7 weeks (reference value: 1.7 +/- 0.56 %); format: functional
Euphorbia heterophylla [12] = test: Herbicidal activity against Euphorbia heterophylla in Corchorus olitorius plots assessed as weed cover at 0.66 kg a.i/ha after 4 weeks (reference value: 20.1+/- 0.57 %); format: functional
Ageratum conyzoides [13] = test: Herbicidal activity against Ageratum conyzoides in Corchorus olitorius plots assessed as weed recovery at 0.33 kg a.i/ha after 2 weeks (reference value: 78.3 +/- 0.74 %); format: functional
Calopogonium mucunoides [14] = test: Herbicidal activity against Calopogonium mucunoides in Corchorus olitorius plots assessed as weed cover at 0.99 kg a.i/ha after 4 weeks (reference value: 20.1+/- 0.57 %); format: functional
Calopogonium mucunoides [15] = test: Herbicidal activity against Calopogonium mucunoides in Abelmoschus esculentus plots assessed as weed cover at 0.33 kg a.i/ha after 4 weeks (reference value: 22.6 +/- 0.49 %); format: functional
Synedrella nodiflora [16] = test: Herbicidal activity against Synedrella nodiflora in Corchorus olitorius plots assessed as weed recovery at 0.33 kg a.i/ha after 2 weeks (reference value: 78.3 +/- 0.74 %); format: functional
Abelmoschus esculentus [17] = test: Phytotoxicity in Abelmoschus esculentus assessed as seed germination at 1.32 kg a.i/ha applied as solution after 7 weeks (reference value: 85.7 +/- 0.36 %); format: organism-based; settings: in vivo, other, 1176 h
Calopogonium mucunoides [18] = test: Herbicidal activity against Calopogonium mucunoides in Corchorus olitorius plots assessed as weed cover at 0.33 kg a.i/ha after 4 weeks (reference value: 20.1+/- 0.57 %); format: functional
Abelmoschus esculentus [19] = test: Phytotoxicity in Abelmoschus esculentus assessed as shoot length at 0.66 kg a.i/ha treated to soil after 7 weeks (reference value: 8.5 +/- 0.34 mm); format: organism-based; settings: in vivo, other, 1176 h
Calopogonium mucunoides [20] = test: Herbicidal activity against Calopogonium mucunoides in Corchorus olitorius plots assessed as major weed growth at 0.99 kg a.i/ha after 2 weeks; format: functional
[21] = system: Rottboellia cochinchinensis; test: Herbicidal activity against Rottboellia cochinchinensis in Corchorus olitorius plots assessed as weed cover at 0.33 kg a.i/ha after 2 weeks (reference value: 81.7 +/- 0.43 %); format: functional
Chromolaena odorata [22] = test: Herbicidal activity against Chromolaena odorata in Corchorus olitorius plots assessed as weed cover at 1.32 kg a.i/ha after 7 weeks (reference value: 1.7 +/- 0.56 %); format: functional
Synedrella nodiflora [23] = test: Herbicidal activity against Synedrella nodiflora in Corchorus olitorius plots assessed as weed cover at 0.66 kg a.i/ha after 4 weeks (reference value: 20.1+/- 0.57 %); format: functional
Euphorbia heterophylla [24] = test: Herbicidal activity against Euphorbia heterophylla in Abelmoschus esculentus plots assessed as weed cover at 1.32 kg a.i/ha after 7 weeks (reference value: 14.7 +/- 0.46 %); format: functional
Chromolaena odorata [25] = test: Herbicidal activity against Chromolaena odorata in Corchorus olitorius plots assessed as weed cover at 0.33 kg a.i/ha after 2 weeks (reference value: 81.7 +/- 0.43 %); format: functional
Ageratum conyzoides [26] = test: Herbicidal activity against Ageratum conyzoides in Corchorus olitorius plots assessed as minor weed growth at 1.32 kg a.i/ha after 2 weeks; format: functional
Cyperus rotundus [27] = test: Herbicidal activity against Cyperus rotundus in Abelmoschus esculentus plots assessed as weed cover at 0.66 kg a.i/ha after 4 weeks (reference value: 22.6 +/- 0.49 %); format: functional
Ageratum conyzoides [28] = test: Herbicidal activity against Ageratum conyzoides in Abelmoschus esculentus plots assessed as weed recovery at 1.32 kg a.i/ha after 2 weeks (reference value: 60.1 +/- 0.46 %); format: functional
Abelmoschus esculentus [29] = test: Phytotoxicity in Abelmoschus esculentus assessed as root length at 0.99 kg a.i/ha applied as solution after 7 weeks (reference value: 23 +/- 0.34 mm); format: organism-based; settings: in vivo, other, 1176 h
Abelmoschus esculentus [30] = test: Phytotoxicity in Abelmoschus esculentus assessed as seedling emergence at 0.66 kg a.i/ha treated to soil after 7 weeks (reference value: 95 +/- 0.05 %); format: organism-based; settings: in vivo, other, 1176 h
Euphorbia heterophylla [31] = test: Herbicidal activity against Euphorbia heterophylla in Corchorus olitorius plots assessed as weed cover at 1.32 kg a.i/ha after 2 weeks (reference value: 81.7 +/- 0.43 %); format: functional
Abelmoschus esculentus [32] = test: Phytotoxicity in Abelmoschus esculentus assessed as root length at 0.99 kg a.i/ha treated to soil after 7 weeks (reference value: 2.9 +/- 0.45 mm); format: organism-based; settings: in vivo, other, 1176 h

Q: With `CCC(CC)Nc1c([N+](=O)[O-])cc(C)c(C)c1[N+](=O)[O-]` [PENDIMETHALIN] as the molecule, how does the Activity (Talinum fruticosum) read?
A: 83.9%

Q: And the Activity (Corchorus olitorius)?
A: 2.4 mm

Q: And the Activity (Ageratum conyzoides [1])?
A: 90%

Q: And the Activity (Commelina diffusa)?
A: 47.9%

Q: And the Activity (Abelmoschus esculentus [2])?
A: 11.8 mm

Q: And the Activity (Euphorbia heterophylla [3])?
A: 47.9%

Q: What about the Activity (Euphorbia heterophylla [4]) of the same molecule?
A: 48.3%

Q: What about the Activity (Calopogonium mucunoides [5]) of the same molecule?
A: 63.3%

Q: And the Activity (Abelmoschus esculentus [6])?
A: 46%

Q: What about the Activity (Synedrella nodiflora [7]) of the same molecule?
A: 63.3%

Q: What about the Activity (Mimosa pudica) of the same molecule?
A: 56.8%

Q: And the Activity (Ageratum conyzoides [8])?
A: 31 /m2

Q: What about the Activity (Abelmoschus esculentus [9]) of the same molecule?
A: 8.6 mm

Q: What about the Activity (Calopogonium mucunoides [10]) of the same molecule?
A: 51.7%

Q: What about the Activity (Cyperus rotundus [11]) of the same molecule?
A: 100%

Q: What about the Activity (Euphorbia heterophylla [12]) of the same molecule?
A: 63.3%

Q: And the Activity (Ageratum conyzoides [13])?
A: 31.7%

Q: What about the Activity (Calopogonium mucunoides [14]) of the same molecule?
A: 48.3%

Q: And the Activity (Calopogonium mucunoides [15])?
A: 53.8%

Q: And the Activity (Synedrella nodiflora [16])?
A: 31.7%

Q: What about the Activity (Abelmoschus esculentus [17]) of the same molecule?
A: 40.2%

Q: What about the Activity (Calopogonium mucunoides [18]) of the same molecule?
A: 73.3%

Q: And the Activity (Abelmoschus esculentus [19])?
A: 5.8 mm

Q: And the Activity (Calopogonium mucunoides [20])?
A: 31 /m2

Q: What about the Activity [21] of the same molecule?
A: 63.3%

Q: And the Activity (Chromolaena odorata [22])?
A: 95%

Q: And the Activity (Synedrella nodiflora [23])?
A: 63.3%

Q: What about the Activity (Euphorbia heterophylla [24]) of the same molecule?
A: 82.4%

Q: And the Activity (Chromolaena odorata [25])?
A: 63.3%

Q: What about the Activity (Ageratum conyzoides [26]) of the same molecule?
A: 1 /m2

Q: And the Activity (Cyperus rotundus [27])?
A: 47.9%

Q: And the Activity (Ageratum conyzoides [28])?
A: 33.2%

Q: And the Activity (Abelmoschus esculentus [29])?
A: 11.8 mm

Q: And the Activity (Abelmoschus esculentus [30])?
A: 82%

Q: And the Activity (Euphorbia heterophylla [31])?
A: 41.7%

Q: What about the Activity (Abelmoschus esculentus [32]) of the same molecule?
A: 1.1 mm
